This is an account of results in patent US7202374B2, “Fullerene derivatives and their metal complexes” (Mitsubishi Chemical Corporation, priority 2002, dated 2007).

Data set [1] can be described thus: Solubility in n-hexane (stir 1 hour, centrifuge, weigh dried residue of supernatant). To be noted: for solubility in n-hexane: room temperature (25° C.), stirred 1 hour. Format: physicochemical. As for the experimental part:
The solubility in n-hexane at 25° C. is determined as follows. In some detail, a predetermined amount of n-hexane is added to a fullerene derivative. The mixture is then stirred at 25° C. for 1 hour. The resulting slurry is then subjected to centrifugal separation. The solution is then decanted. The solvent is then distilled off the resulting supernatant liquid. The resulting precipitate is dried in vacuo, and then measured for weight. Thus, the solubility in n-hexane at 25° C. is calculated.
To 100 mg of C60[CH2Si(CH3)3]5H was added 0.5 ml of n-hexane. The mixture was then stirred at 25° C. for 1 hour. The slurry was purified, and then subjected to centrifugal separation by a centrifugal separator. The resulting supernatant liquid was withdrawn. The solvent was then distilled off. The residue was then dried in vacuo. The weight of the residue was then measured. The result was 32.5 mg.

Data set [2] in a line: Stability of the solid at room temperature in the air. Particulars: solid (brown powder). Type of data set: physicochemical.

For the substance (C6H5)5C60H, in data set [1], the solubility in n-hexane result is reported as “less than 0.001 mg/ml”.
The same measure, in the same setting: the result for (CH3)5C60H reads “less than 0.001 mg/ml”.
Turning to C60[CH2Si(CH3)3]2, in data set [1] (50° C., otherwise same conditions as in Example 1), the “solubility in n-hexane measured at 50° C.” value is on record as “about 0.2 mg/ml”. For the same substance, the solubility in n-hexane result in data set [1] is reported as “about 0.05 mg/ml”.
Turning to C60[CH2Si(CH3)3]5H, the stability when solid entry in data set [2] is recorded as “stable at room temperature in the air”. Further, in data set [1], the solubility in n-hexane was 65 mg/mL.
In the case of C60{CH2Si(CH3)3}3H, the stability when solid result in data set [2] was “stable at room temperature in the air”. Besides, in data set [1], the solubility in n-hexane is 11 mg/mL.
“Rh[C60{CH2Si(CH3)3}3](1,5-cyclooctadiene)” showed a solubility in n-hexane in data set [1] of 5.0 mg/mL.
